Here are results for 1 compound from ChEMBL document CHEMBL2010637, “Synthesis and evaluation of triazolones as checkpoint kinase 1 inhibitors” (Bioorg Med Chem Lett, 2012).

Data set [1] in a line: AUC in nude mouse. Format: ADME, organism-based. The conditions noted are these: plasma.
A short description of data set [2]: Clearance in nude mouse. Format: ADME, organism-based. As to conditions: in vivo.
Data set [3] is described as follows: Half life in nude mouse. As to conditions: in vivo. In kind it is ADME, organism-based.
A short description of data set [4]: Volume of distribution at steady state in nude mouse. In kind it is ADME, organism-based. The conditions noted are these: in vivo, read-out: Vdss.
Data set [5] is described as follows: Lipophilicity, Log D of the compound. In kind it is physicochemical. As to conditions: octanol/water.

In general, AUC refers to concentration integrated over time. Read a low AUC as less exposure. The term clearance denotes the volume of plasma or blood freed of the substance per unit of time. A high value points to efficient removal. Broadly, the half-life is the time needed for the level to fall by half in the phase considered. By logD is commonly meant lipophilicity at a set pH, counting ionised and neutral species. A high value points to higher lipophilicity. Regarding `O=c1[nH]nc2cc(CO)c3ccc(-c4ccc[nH]4)cc3n12`, the AUC in data set [1] was determined as 5.47 µM·h. Besides, the clearance in data set [2] amounted to 33 mL/min/kg. In data set [3], the half-life was 1.8 h. Besides, the Vd in data set [4] amounted to 3.4 L/kg. The logD in data set [5] amounted to 2.19.
